Reference: ChEMBL document CHEMBL4483862, “Open-source discovery of chemical leads for next-generation chemoprotective antimalarials” (2018)

System: Plasmodium berghei
Assay: Luciferase/luciferin-expressing antifolate-resistant parasites were used to infect a culture of HepG2 cells that were pre-incubated with compounds. Infected hepatocytes emit light due to the luciferase reaction. Assay results are presented as the percent inhibition of light emission compared to control. […]
Type: functional
Conditions: sporozoite; for IC90: read-out: LUCIFERASE INFECTION ASSAY - IC90
[1] = read-out: LUCIFERASE INFECTION ASSAY - IC50

CCN(CC)c1ccc(Nc2nc(-c3ccncc3)cs2)cc1
IC50 (HEPG2TOX_HILL_SLOPE 17.3, HEPG2TOX_R_SQUARED 0.807, PBLUC_HILL_SLOPE 2.78, PBLUC_R_SQUARED 0.42, read-out: LUCIFERASE INFECTION ASSAY - IC50): 4.75 µM | IC90: > 8.14 µM

Fc1ccc(-c2cc3[nH]c(NCc4ccccc4)nc3cn2)cc1Cl
IC50 (HEPG2TOX_HILL_SLOPE 17.8, HEPG2TOX_R_SQUARED 0.722, PBLUC_HILL_SLOPE 354, PBLUC_R_SQUARED 0.159, read-out: LUCIFERASE INFECTION ASSAY - IC50): 5.38 µM | IC90: 5.42 µM

OC(c1cccc(OC(F)(F)F)c1)c1nnc(Nc2ccc(F)c(Cl)c2)s1 (stereo unspecified)
IC50 (FFLUC_HILL_SLOPE 2.61, FFLUC_R_SQUARED 0.0634, read-out: LUCIFERASE INFECTION ASSAY - IC50): > 10 µM | IC90: > 10 µM

COc1ccc(C(C)(O)c2nc(-c3cccc(F)c3)cs2)cc1 (stereo unspecified)
IC50 [1]: 5.17 µM | IC90: 5.23 µM

O=C1C(=O)N(Cc2ccncc2)c2ccccc21
IC50 (PBLUC_HILL_SLOPE 4.07, PBLUC_R_SQUARED 0.778, read-out: LUCIFERASE INFECTION ASSAY - IC50): 8.1 µM | IC90: > 13.9 µM

CC(C)c1nc2ccccc2n1Cc1cccc2ccccc12
IC50 (HEPG2TOX_HILL_SLOPE 2.18, HEPG2TOX_R_SQUARED 0.953, PBLUC_HILL_SLOPE 14.4, PBLUC_R_SQUARED 0.432, read-out: LUCIFERASE INFECTION ASSAY - IC50): 3.58 µM | IC90: 4.17 µM

CCOC(=O)c1c(C)[nH]c(N=Nc2cccc(C(F)(F)F)c2)c1C
IC50 [1]: > 10 µM | IC90: > 10 µM

C=S(=O)(NC(=O)CSc1ccc(Cl)cc1)c1ccc(C)cc1 (stereo unspecified)
IC50 [1]: > 9.32 µM | IC90: > 9.32 µM

Cc1cccc(/C=C2\CC(C#N)(c3ccccc3)C/C(=C\c3cccc(C)c3)C2=O)c1 (stereo unspecified)
IC50 (PBLUC_HILL_SLOPE 1.76, PBLUC_R_SQUARED 0.46, read-out: LUCIFERASE INFECTION ASSAY - IC50): 9.05 µM | IC90: > 10 µM

Cc1cc2ncc(-c3ccnc(SCC(=O)Nc4cccc(C(F)(F)F)c4)n3)c(C)n2n1
IC50 [1]: > 7.2 µM | IC90: > 7.2 µM

c1ccc(CNCc2cn(-c3ccccc3)nc2-c2ccncc2)cc1
IC50 (PBLUC_HILL_SLOPE 0.853, PBLUC_R_SQUARED 0.208, read-out: LUCIFERASE INFECTION ASSAY - IC50): > 8.76 µM | IC90: > 8.76 µM

O=C1C(=O)N(Cc2ccc(Cl)cc2)c2c1cccc2C(F)(F)F
IC50 (FFLUC_HILL_SLOPE 2.39, FFLUC_R_SQUARED 0.89, HEPG2TOX_HILL_SLOPE 3.88, HEPG2TOX_R_SQUARED 0.975, PBLUC_HILL_SLOPE 2.88, PBLUC_R_SQUARED 0.708, read-out: LUCIFERASE INFECTION ASSAY - IC50): 1.58 µM | IC90: 3.39 µM

CC(C)Cn1c(N)c(C(=O)CSc2nnc(COc3ccccc3Cl)o2)c(=O)n(C)c1=O
IC50 [1]: 3.28 µM | IC90: 3.85 µM

COc1ccc2c3c(cccc13)C(=O)N(c1nc3ccccc3n1C)C2=O
IC50 [1]: > 9.23 µM | IC90: > 9.23 µM

CC(=O)Nc1cccc(-c2cn3c(-c4ccc(Cl)cc4)cnc3cn2)c1
IC50 (PBLUC_HILL_SLOPE 3.14, PBLUC_R_SQUARED 0.81, read-out: LUCIFERASE INFECTION ASSAY - IC50): 1.83 µM | IC90: 3.69 µM

CN(CC(=O)Nc1ccc(-c2nc3ccccc3[nH]2)cc1)S(=O)(=O)c1ccc(Cl)s1
IC50 (HEPG2TOX_HILL_SLOPE 1.06, HEPG2TOX_R_SQUARED 0.764, PBLUC_HILL_SLOPE 1.55, PBLUC_R_SQUARED 0.165, read-out: LUCIFERASE INFECTION ASSAY - IC50): > 10 µM | IC90: > 10 µM

Cn1ccnc1CN(C(=O)c1cnn(-c2ccccc2)c1)C1CC1
IC50 [1]: > 10 µM | IC90: > 10 µM

NC(=O)c1cc(-c2csc(NC(=O)Cc3ccc(Cl)c(Cl)c3)n2)c[nH]1
IC50 (FFLUC_HILL_SLOPE 1.47, FFLUC_R_SQUARED 0.0625, read-out: LUCIFERASE INFECTION ASSAY - IC50): > 10 µM | IC90: > 10 µM

COc1cccc(-c2cc3c(Nc4cccc(OC(C)C)c4)nccc3n2C)c1
IC50 (PBLUC_HILL_SLOPE 2.76, PBLUC_R_SQUARED 0.246, read-out: LUCIFERASE INFECTION ASSAY - IC50): 6.87 µM | IC90: > 10 µM

COc1ccc(-c2noc(CCCCCNC(=O)c3ccc(-n4cnnn4)cc3)n2)cc1
IC50 [1]: > 10 µM | IC90: > 10 µM

CCN(CC)Cc1ccc(OCC(=O)Nc2ccc(Cl)cc2)c2ncccc12
IC50 (FFLUC_HILL_SLOPE 1.82, FFLUC_R_SQUARED 0.795, HEPG2TOX_HILL_SLOPE 1.24, HEPG2TOX_R_SQUARED 0.929, read-out: LUCIFERASE INFECTION ASSAY - IC50): > 10 µM | IC90: > 10 µM

CCOC(=O)CCc1c(C)[nH]n(-c2nc3ccccc3[nH]2)c1=O
IC50 (HEPG2TOX_HILL_SLOPE 1.88, HEPG2TOX_R_SQUARED 0.728, PBLUC_HILL_SLOPE 14.3, PBLUC_R_SQUARED 0.719, read-out: LUCIFERASE INFECTION ASSAY - IC50): 3.03 µM | IC90: 3.53 µM

Cc1cc(C(C)(C)C)cc(C)c1CCNC(=O)C1CC1C (stereo unspecified)
IC50 (HEPG2TOX_HILL_SLOPE 11.1, HEPG2TOX_R_SQUARED 0.0296, PBLUC_HILL_SLOPE 3.7, PBLUC_R_SQUARED 0.553, read-out: LUCIFERASE INFECTION ASSAY - IC50): 5.05 µM | IC90: 9.15 µM

COc1ccc(-c2cnc3cnc(-c4ccc(CO)cc4)cn23)cc1
IC50 (PBLUC_HILL_SLOPE 11.2, PBLUC_R_SQUARED 0.457, read-out: LUCIFERASE INFECTION ASSAY - IC50): 7.48 µM | IC90: 9.11 µM

O=C(COC(=O)CCC1CCCC1)Nc1ncc(C(F)(F)F)cc1Cl
IC50 [1]: > 10 µM | IC90: > 10 µM

Fc1cccc(-c2cnc3cnc(-c4ccc(CNc5ccccc5)cc4)cn23)c1
IC50 (PBLUC_HILL_SLOPE 9.4, PBLUC_R_SQUARED 0.212, read-out: LUCIFERASE INFECTION ASSAY - IC50): > 8.37 µM | IC90: > 8.37 µM

COc1ccc(-c2c(C)nn3c(=O)cc(CSc4ccc(C)cc4)[nH]c23)cc1
IC50 (HEPG2TOX_HILL_SLOPE 2.74, HEPG2TOX_R_SQUARED 0.727, PBLUC_HILL_SLOPE 9.33, PBLUC_R_SQUARED 0.653, read-out: LUCIFERASE INFECTION ASSAY - IC50): 3.09 µM | IC90: 3.91 µM

CC(=O)c1cccc(-c2ccnc3c2CC(C(=O)NCCc2ccccc2)O3)c1 (stereo unspecified)
IC50 (HEPG2TOX_HILL_SLOPE 2.91, HEPG2TOX_R_SQUARED 0.95, PBLUC_HILL_SLOPE 2.2, PBLUC_R_SQUARED 0.478, read-out: LUCIFERASE INFECTION ASSAY - IC50): 1.89 µM | IC90: 5.14 µM

CC1=NN(c2ccc(C)cc2)C(=O)C1=C1SCCS1
IC50 [1]: 1.99 µM | IC90: > 11.4 µM

CCc1cccc2c(/C=C(\C#N)c3nc4ccccc4[nH]3)c[nH]c12
IC50 (HEPG2TOX_HILL_SLOPE 6.57, HEPG2TOX_R_SQUARED 0.521, read-out: LUCIFERASE INFECTION ASSAY - IC50): > 10 µM | IC90: > 10 µM

COc1cc(C(=O)OCC#N)ccc1OCc1c(C)noc1C
IC50 [1]: > 10 µM | IC90: > 10 µM

FC(F)(F)c1cccc(-c2ccc3nnc(-c4cccc(Cl)c4)n3c2)c1
IC50 [1]: > 10 µM | IC90: > 10 µM

Cc1nc(C2CC2)ncc1-c1nc(=Nc2ccccc2)s[nH]1
IC50 (HEPG2TOX_HILL_SLOPE 2.45, HEPG2TOX_R_SQUARED 0.884, PBLUC_HILL_SLOPE 3.42, PBLUC_R_SQUARED 0.283, read-out: LUCIFERASE INFECTION ASSAY - IC50): 7.23 µM | IC90: > 10.7 µM

COc1ccc(OS(=O)(=O)c2sc(Br)cc2Br)cc1
IC50 (HEPG2TOX_HILL_SLOPE 3.4, HEPG2TOX_R_SQUARED 0.9, PBLUC_HILL_SLOPE 10.6, PBLUC_R_SQUARED 0.653, read-out: LUCIFERASE INFECTION ASSAY - IC50): 2.64 µM | IC90: 3.26 µM

Cc1nn(S(=O)(=O)c2ccc(-c3cc(C(F)(F)F)n(C)n3)s2)c(C)c1Br
IC50 [1]: > 7.03 µM | IC90: > 7.03 µM

Cc1ccc(N2C(=O)C=CC2=O)cc1Cl
IC50 (FFLUC_HILL_SLOPE 79.3, FFLUC_R_SQUARED 0.497, PBLUC_HILL_SLOPE 1.92, PBLUC_R_SQUARED 0.35, read-out: LUCIFERASE INFECTION ASSAY - IC50): 6.38 µM | IC90: > 14.9 µM

COc1cc2c(cc1OC)CN(C(=O)CCN1c3ccccc3Sc3ccccc31)CC2
IC50 (HEPG2TOX_HILL_SLOPE 15.5, HEPG2TOX_R_SQUARED 0.469, PBLUC_HILL_SLOPE 3.54, PBLUC_R_SQUARED 0.432, read-out: LUCIFERASE INFECTION ASSAY - IC50): 4.56 µM | IC90: 8.48 µM

Nc1nc(Sc2ncnc3sccc23)nc2sccc12
IC50 (PBLUC_HILL_SLOPE 20, PBLUC_R_SQUARED 0.321, read-out: LUCIFERASE INFECTION ASSAY - IC50): 7.96 µM | IC90: 8.89 µM

O=C(Nc1nc2c(s1)CCc1ccccc1-2)c1cccc(-n2cnnn2)c1
IC50 [1]: > 10 µM | IC90: > 10 µM

CCN(CC)C(=O)c1ccc(Nc2nc(C(F)(F)F)nc3ccccc23)cc1
IC50 (HEPG2TOX_HILL_SLOPE 3.04, HEPG2TOX_R_SQUARED 0.82, PBLUC_HILL_SLOPE 1.45, PBLUC_R_SQUARED 0.471, read-out: LUCIFERASE INFECTION ASSAY - IC50): 5.81 µM | IC90: > 10 µM

NC(=O)c1cc(NC(=O)c2cccs2)ccc1N1CCCCC1
IC50 (HEPG2TOX_HILL_SLOPE 7.03, HEPG2TOX_R_SQUARED 0.757, PBLUC_HILL_SLOPE 7.92, PBLUC_R_SQUARED 0.39, read-out: LUCIFERASE INFECTION ASSAY - IC50): 3.66 µM | IC90: 4.83 µM

CCOC(=O)CN(c1cc(OC(C)C)c(Cl)cc1Cl)S(=O)(=O)c1ccc(Cl)cc1
IC50 (HEPG2TOX_HILL_SLOPE 6.82, HEPG2TOX_R_SQUARED 0.403, PBLUC_HILL_SLOPE 1.36, PBLUC_R_SQUARED 0.622, read-out: LUCIFERASE INFECTION ASSAY - IC50): 3.13 µM | IC90: > 6.86 µM

Cc1cccc(C(=O)Nc2nc3ccc(C)cn3c2C(=O)NC2CCCC2)c1
IC50 (PBLUC_HILL_SLOPE 3.54, PBLUC_R_SQUARED 0.461, read-out: LUCIFERASE INFECTION ASSAY - IC50): 4.01 µM | IC90: 7.46 µM
